For two molecules, EC50 results are on record in ChEMBL document CHEMBL1154572, “Stephanotic acid, a novel cyclic pentapeptide from the stem of Stephanotis floribunda” (2000).

The subject of one test is KB. The test is described as follows: Cytotoxicity against human KB cells. It is filed as functional. The following applies: read-out: ED50.
In the next test the test system is L1210. The test can be described thus: Cytotoxicity against mouse L1210 cells. Format: functional. The note with it: L1210, read-out: ED50.

As to `CC[C@H](C)[C@@H]1NC(=O)[C@@H](NC(=O)[C@@H]2CCC(=O)N2)[C@@H](C(C)C)c2ccc3c(c[nH]c3c2)C[C@@H](C(=O)OC)NC(=O)[C@H](C(C)C)NC1=O` [METHYL STEPHANATE], the EC50 in the test with KB and in the test with L1210 was more than 50 µg/mL throughout.

`CC[C@H](C)[C@@H]1NC(=O)[C@@H](NC(=O)[C@@H]2CCC(=O)N2)[C@@H](C(C)C)c2ccc3c(c[nH]c3c2)C[C@@H](C(=O)O)NC(=O)[C@H](C(C)C)NC1=O` [STEPHANOTIC ACID]: the EC50 in the test with KB and in the test with L1210 was more than 50 µg/mL in each case.
